Measured values from patent publication US20220204439A1, “LIPIDS AND LIPID NANOPARTICLE FORMULATIONS FOR DELIVERY OF NUCLEIC ACIDS” (Acuitas Therapeutics, Inc., priority 2015, published 2022).
Blank lines part the entries; values can stand above or below the compound they belong to.

Experiments:
[1] = test system: luciferase expression in the liver; assay: In vivo luciferase mRNA expression in mouse liver with lipid nanoparticle formulations; parameters: species or system C57BL/6 mice; details: tail vein injection, liver 4 hours after administration, FLuc mRNA; for Liver Luc @ 0.3 mg/kg (ng luc/g liver) / Liver Luc @ 1.0 mg/kg (ng luc/g liver): LNP 50% cationic lipid/10% DSPC/38.5% cholesterol/1.5% PEG-DMA
Experimental: (§1) Cationic lipid (MC3), DSPC, cholesterol and PEG-lipid were solubilized in ethanol at a molar ratio of 50:10:38.5:1.5. Lipid nanoparticles (LNP) were prepared at a total lipid to mRNA weight ratio of approximately 10:1 to 30:1. Briefly, the mRNA was diluted to 0.2 mg/mL in 10 to 50 mM citrate buffer, pH 4. Syringe pumps were used to mix the ethanolic lipid solution with the mRNA aqueous solution at a ratio of about 1:5 to 1:3 (vol/vol) with total flow rates above 15 ml/min. The ethanol was then removed and the external buffer replaced with PBS by dialysis. Finally, the lipid nanoparticles were filtered through a 0.2 μm pore sterile filter. Lipid nanoparticle particle size was 70-90 nm diameter as determined by quasi-elastic light scattering using a Nicomp 370 submicron particle sizer (Santa Barbara, Calif.).
Studies were performed in 6-8 week old female C57BL/6 mice (Charles River) according to guidelines established by an institutional animal care committee (ACC) and the Canadian Council on Animal Care (CCAC). Varying doses of mRNA-lipid nanoparticle were systemically administered by tail vein injection and animals euthanized at specific time points (1, 2, 4, 8 and 24 hrs) post-administration. Liver and spleen were collected in pre-weighted tubes, weights determined, immediately snap frozen in liquid nitrogen and stored at −80° C. until processing for analysis.
For liver, approximately 50 mg was dissected for analyses in a 2 mL FastPrep tubes (MP Biomedicals, Solon Ohio). ¼″ ceramic sphere (MP Biomedicals) was added to each tube and 500 μL of Glo Lysis Buffer—GLB (Promega, Madison Wis.) equilibrated to room temperature was added to liver tissue. Liver tissues were homogenized with the FastPrep24 instrument (MP Biomedicals) at 2×6.0 m/s for 15 seconds. Homogenate was incubated at room temperature for 5 minutes prior to a 1:4 dilution in GLB and assessed using SteadyGlo Luciferase assay system (Promega). Specifically, 50 μL of diluted tissue homogenate was reacted with 50 μL of SteadyGlo substrate, shaken for 10 seconds followed by 5 minute incubation and then quantitated using a CentroXS^3 LB 960 luminometer (Berthold Technologies, Germany). The amount of protein assayed was determined by using the BCA protein assay kit (Pierce, Rockford Ill.). Relative luminescence units (RLU) were then normalized to total ug protein assayed. To convert RLU to ng luciferase a standard curve was generated with QuantiLum Recombinant Luciferase (Promega). Based in the data provided in FIG. 1, the four-hour time point was chosen for efficacy evaluation of the lipid formulations (see Example 29).
The FLuc mRNA (L-6107) from Trilink Biotechnologies will express a luciferase protein, originally isolated from the firefly, Photinus pyralis. FLuc is commonly used in mammalian cell culture to measure both gene expression and cell viability. It emits bioluminescence in the presence of the substrate, luciferin. This capped and polyadenylated mRNA is fully substituted with 5-methylcytidine and pseudouridine.
The cationic lipids shown in Table 2 have previously been tested with nucleic acids. For comparative purposes, these lipids were also used to formulate lipid nanoparticles containing the FLuc mRNA (L-6107) using an in line mixing method, as described in example 28 and in PCT/US10/22614, which is hereby incorporated by reference in its entirety. […] Relative activity was determined by measuring luciferase expression in the liver 4 hours following administration via tail vein injection as described in example 28. The activity was compared at a dose of 0.3 and 1.0 mg mRNA/kg and expressed as ng luciferase/g liver measured 4 hours after administration, as described in Example 28. […]

[2] = pKa of formulated cationic lipids in lipid nanoparticles (TNS fluorescence assay); assay type: physicochemical; details: probe 2-(p-toluidino)-6-napthalene sulfonic acid (TNS), 1 µM final; formulated in LNP cationic lipid/DSPC/cholesterol/PEG-lipid 50/10/38.5/1.5 mol %; pH of half-maximal TNS fluorescence
Experimental: As described elsewhere, the pKa of formulated cationic lipids is correlated with the effectiveness of LNPs for delivery of nucleic acids (see Jayaraman et al, Angewandte Chemie, International Edition (2012), 51(34), 8529-8533; Semple et al, Nature Biotechnology 28, 172-176 (2010)). The preferred range of pKa is ˜5 to ˜7. […] Lipid nanoparticles comprising of cationic lipid/DSPC/cholesterol/PEG-lipid (50/10/38.5/1.5 mol %) in PBS at a concentration of 0.4 mM total lipid are prepared using the in-line process as described in Example 28. TNS was prepared as a 100 μM stock solution in distilled water. Vesicles were diluted to 24 μM lipid in 2 mL of buffered solutions containing, 10 mM HEPES, 10 mM MES, 10 mM ammonium acetate, 130 mM NaCl, where the pH ranged from 2.5 to 11. An aliquot of the TNS solution was added to give a final concentration of 1 μM and following vortex mixing fluorescence intensity was measured at room temperature in a SLM Aminco Series 2 Luminescence Spectrophotometer using excitation and emission wavelengths of 321 nm and 445 nm. A sigmoidal best fit analysis was applied to the fluorescence data and the pKa was measured as the pH giving rise to half-maximal fluorescence intensity (see FIG. 2).

[3] = Lipid nanoparticle particle size by quasi-elastic light scattering; assay type: physicochemical; details: MC3/DSPC/cholesterol/PEG-lipid 50:10:38.5:1.5 LNP with mRNA, Nicomp 370
Experimental: as §1

Structure (SMILES): CCCCCCCCC(=O)N(CCCN(C)C)C(CCCCCCCCC(=O)OCC(CCCC)CCCCCC)CCCCCCCCC(=O)OCC(CCCC)CCCCCC (centres unmarked) [Compound 9]
Liver Luc @ 0.3 mg/kg (ng luc/g liver) ([1]; 0.3 mg mRNA/kg): 2381 ± 1162 ng luc/g liver
Liver Luc @ 1.0 mg/kg (ng luc/g liver) ([1]; 1.0 mg mRNA/kg): 17157 ± 2470 ng luc/g liver
pKa [2]: 6.27

Structure (SMILES): CCCCCCCC(=O)N(CCCN(C)C)C(CCCCCCCCC(=O)OC(CCCCCC)CCCCCC)CCCCCCCCC(=O)OC(CCCCCC)CCCCCC [Compound 10]
Liver Luc @ 0.3 mg/kg (ng luc/g liver) ([1]; 0.3 mg mRNA/kg): 2379 ± 93 ng luc/g liver
Liver Luc @ 1.0 mg/kg (ng luc/g liver) ([1]; 1.0 mg mRNA/kg): 26181 ± 2900 ng luc/g liver
pKa [2]: 6.16

Structure (SMILES): CCCCCCCCC(=O)N(CCCN(C)C)C(CCCCCCCCC(=O)OC(CCCCCC)CCCCCC)CCCCCCCCC(=O)OC(CCCCCC)CCCCCC [Compound 11]
Liver Luc @ 0.3 mg/kg (ng luc/g liver) ([1]; 0.3 mg mRNA/kg): 2273 ± 294 ng luc/g liver
Liver Luc @ 1.0 mg/kg (ng luc/g liver) ([1]; 1.0 mg mRNA/kg): 16502 ± 4301 ng luc/g liver
pKa [2]: 6.13

Structure (SMILES): CCCCCCCCC(CCCCCC)COC(=O)CCCCCCCCC(CCCCCCCCC(=O)OCC(CCCCCC)CCCCCCCC)N(CCCN(C)C)C(=O)CCCCCCC (centres unmarked) [Compound 12]
Liver Luc @ 0.3 mg/kg (ng luc/g liver) ([1]; 0.3 mg mRNA/kg): 3336 ± 1394 ng luc/g liver
Liver Luc @ 1.0 mg/kg (ng luc/g liver) ([1]; 1.0 mg mRNA/kg): 13577 ± 1948 ng luc/g liver
pKa [2]: 6.21

Structure (SMILES): CCCCCCCCC(=O)N(CCCN(C)C)C(CCCCCCCCC(=O)OCC(CCCCCC)CCCCCCCC)CCCCCCCCC(=O)OCC(CCCCCC)CCCCCCCC (centres unmarked) [Compound 13]
Liver Luc @ 0.3 mg/kg (ng luc/g liver) ([1]; 0.3 mg mRNA/kg): 1537 ± 777 ng luc/g liver
Liver Luc @ 1.0 mg/kg (ng luc/g liver) ([1]; 1.0 mg mRNA/kg): 10907 ± 2032 ng luc/g liver
pKa [2]: 6.22

Structure (SMILES): CCCCCCCC(=O)N(CCCN1CCCC1)C(CCCCCCCCC(=O)OCC(CCCC)CCCCCC)CCCCCCCCC(=O)OCC(CCCC)CCCCCC (centres unmarked) [Compound 14]
Liver Luc @ 0.3 mg/kg (ng luc/g liver) ([1]; 0.3 mg mRNA/kg): 2851 ± 438 ng luc/g liver
Liver Luc @ 1.0 mg/kg (ng luc/g liver) ([1]; 1.0 mg mRNA/kg): 15445 ± 3693 ng luc/g liver
pKa [2]: 6.33

Structure (SMILES): CCCCCCCCC(=O)N(CCCN1CCCC1)C(CCCCCCCCC(=O)OCC(CCCC)CCCCCC)CCCCCCCCC(=O)OCC(CCCC)CCCCCC (centres unmarked) [Compound 15]
Liver Luc @ 0.3 mg/kg (ng luc/g liver) ([1]; 0.3 mg mRNA/kg): 2708 ± 924 ng luc/g liver
Liver Luc @ 1.0 mg/kg (ng luc/g liver) ([1]; 1.0 mg mRNA/kg): 15930 ± 4711 ng luc/g liver
pKa [2]: 6.32

Structure (SMILES): CCCCC/C=C\C/C=C\CCCCCCCCC(CCCCCCCC/C=C\C/C=C\CCCCC)C(=O)N(CCCCCCCCC)CCCN(C)C [Compound 16]
Liver Luc @ 0.3 mg/kg (ng luc/g liver) ([1]; 0.3 mg mRNA/kg): 231 ± 100 ng luc/g liver
Liver Luc @ 1.0 mg/kg (ng luc/g liver) ([1]; 1.0 mg mRNA/kg): 1185 ± 838 ng luc/g liver
pKa [2]: 6.37

Structure (SMILES): CCCCCCCCC(=O)N(CCCN(C)C)C(CCCCCCCCCOC(=O)C(CCCC)CCCCCC)CCCCCCCCCOC(=O)C(CCCC)CCCCCC (centres unmarked) [Compound 17]
Liver Luc @ 0.3 mg/kg (ng luc/g liver) ([1]; 0.3 mg mRNA/kg): 837 ± 260 ng luc/g liver
Liver Luc @ 1.0 mg/kg (ng luc/g liver) ([1]; 1.0 mg mRNA/kg): 6703 ± 689 ng luc/g liver
pKa [2]: 6.29

More lines, main results first:

pKa [2]: 6.14
Structure (SMILES): CCCCCC(CCCC)OC(=O)CCCCCCCC(=O)N(CCCN(C)C)C(CCCCCCCCC(=O)OC(CCCC)CCCC)CCCCCCCCC(=O)OC(CCCC)CCCC (centres unmarked) [Compound 24]
Liver Luc @ 0.3 mg/kg (ng luc/g liver) ([1]; 0.3 mg mRNA/kg): 1120 ± 376 ng luc/g liver
Liver Luc @ 1.0 mg/kg (ng luc/g liver) ([1]; 1.0 mg mRNA/kg): 7425 ± 2810 ng luc/g liver

pKa [2]: 5.97
Structure (SMILES): CCCCCCC(CCCC)COC(=O)CCCCCCCCC(CCCCCCCCC(=O)OCC(CCCC)CCCCCC)N(CCCN(C)C)C(=O)C(CC)CCCCC (centres unmarked) [Compound 35]
Liver Luc @ 0.3 mg/kg (ng luc/g liver) ([1]; 0.3 mg mRNA/kg): 1083 ± 350 ng luc/g liver
Liver Luc @ 1.0 mg/kg (ng luc/g liver) ([1]; 1.0 mg mRNA/kg): 8554 ± 4587 ng luc/g liver

pKa [2]: 6.13
Structure (SMILES): CCCCCCCCC(=O)N(CCCN(C)C)C(CCCCCCCCCOC(=O)C(CCCCCC)CCCCCCCC)CCCCCCCCCOC(=O)C(CCCCCC)CCCCCCCC (centres unmarked) [Compound 36]
Liver Luc @ 0.3 mg/kg (ng luc/g liver) ([1]; 0.3 mg mRNA/kg): 541 ± 91 ng luc/g liver
Liver Luc @ 1.0 mg/kg (ng luc/g liver) ([1]; 1.0 mg mRNA/kg): 4736 ± 980 ng luc/g liver

pKa [2]: 6.45
Structure (SMILES): CCCCCCCCC(=O)N(CCCN(C)C)C(CCCCCC(=O)OCC(CCCCCC)CCCCCCCC)CCCCCC(=O)OCC(CCCCCC)CCCCCCCC (centres unmarked) [Compound 38]
Liver Luc @ 0.3 mg/kg (ng luc/g liver) ([1]; 0.3 mg mRNA/kg): 905 ± 443 ng luc/g liver
Liver Luc @ 1.0 mg/kg (ng luc/g liver) ([1]; 1.0 mg mRNA/kg): 5353 ± 2082 ng luc/g liver

pKa [2]: 6.45
Structure (SMILES): CCCCCCCCC(CCCCCC)COC(=O)CCCCCC(CCCCCC(=O)OCC(CCCCCC)CCCCCCCC)N(CCCN(C)C)C(=O)CCCCCCC (centres unmarked) [Compound 39]
Liver Luc @ 0.3 mg/kg (ng luc/g liver) ([1]; 0.3 mg mRNA/kg): 779 ± 82 ng luc/g liver
Liver Luc @ 1.0 mg/kg (ng luc/g liver) ([1]; 1.0 mg mRNA/kg): 5180 ± 2116 ng luc/g liver

pKa [2]: 6.57
Structure (SMILES): CCCCCCCCC(CCCCCC)COC(=O)CCCCCC(CCCCCC(=O)OCC(CCCCCC)CCCCCCCC)N(CCCN(C)C)C(=O)CCCCCCCC(=O)OCC (centres unmarked) [Compound 40]
Liver Luc @ 0.3 mg/kg (ng luc/g liver) ([1]; 0.3 mg mRNA/kg): 753 ± 156 ng luc/g liver
Liver Luc @ 1.0 mg/kg (ng luc/g liver) ([1]; 1.0 mg mRNA/kg): 2203 ± 1555 ng luc/g liver

Lipid nanoparticle particle size (diameter) [3]: 70-90 nm
Structure (SMILES): CCCCC/C=C\C/C=C\CCCCCCCCC(CCCCCCCC/C=C\C/C=C\CCCCC)OC(=O)CCCN(C)C [MC3, reference compound]
Liver Luc @ 0.3 mg/kg (ng luc/g liver) ([1]; 0.3 mg mRNA/kg): 603 ± 150 ng luc/g liver
Liver Luc @ 0.3 mg/kg dose ([1]; 0.3 mg mRNA/kg, LNP 50% cationic lipid/10% DSPC/38.5% cholesterol/1.5% PEG-DMG): 198 ± 126 ng luciferase/g liver
Liver Luc @ 1.0 mg/kg (ng luc/g liver) ([1]; 1.0 mg mRNA/kg): 2876 ± 622 ng luc/g liver
Liver Luc @ 1.0 mg/kg dose ([1]; 1.0 mg mRNA/kg, LNP 50% cationic lipid/10% DSPC/38.5% cholesterol/1.5% PEG-DMG): 757 ± 528 ng luciferase/g liver
